In patent US9650340B2, “5-fluoro-N-(pyridin-2-yl)pyridin-2-amine derivatives containing a sulfoximine group” (BAYER PHARMA AKTIENGESELLSCHAFT, priority 2012, dated 2017) one finds IC50 data, which are given here for nine molecules.

Experiment [1] concerns the target T1, CDK2/CycE (Homo sapiens, UniProt P24941).
T1 construct: GST; purchased ProQinase GmbH (Freiburg, Germany); host or cells: insect cells (Sf9)
In words: CDK2/CycE kinase assay (TR-FRET, 10 μM ATP). The format is biochemical. As to conditions: Method 2 (2a). The text has this:
2a. CDK2/CycE Kinase Assay:
CDK2/CycE-inhibitory activity of compounds of the present invention was quantified employing the CDK2/CycE TR-FRET assay as described in the following paragraphs:
Recombinant fusion proteins of GST and human CDK2 and of GST and human CycE, expressed in insect cells (Sf9) and purified by Glutathion-Sepharose affinity chromatography, were purchased from ProQinase GmbH (Freiburg, Germany). As substrate for the kinase reaction biotinylated peptide biotin-Ttds-[…] (C-terminus in amid form) was used which can be purchased e.g. form the company JERINI Peptide Technologies (Berlin, Germany).
For the assay 50 nl of a 100 fold concentrated solution of the test compound in DMSO was pipetted into a black low volume 384 well microtiter plate (Greiner Bio-One, Frickenhausen, Germany), 2 μl of a solution of CDK2/CycE in aqueous assay buffer [50 mM Tris/HCl pH 8.0, 10 mM MgCl2, 1.0 mM dithiothreitol, 0.1 mM sodium ortho-vanadate, 0.01% (v/v) Nonidet-P40 (Sigma)] were added and the mixture was incubated for 15 min at 22° C. to allow pre-binding of the test compounds to the enzyme before the start of the kinase reaction. Then the kinase reaction was started by the addition of 3 μl of a solution of adenosine-tri-phosphate (ATP, 16.7 μM=>final conc. in the 5 μl assay volume is 10 μM) and substrate (1.25 μM=>final conc. in the 5 μl assay volume is 0.75 μM) in assay buffer and the resulting mixture was incubated for a reaction time of 25 min at 22° C. The concentration of CDK2/CycE was adjusted depending of the activity of the enzyme lot and was chosen appropriate to have the assay in the linear range, typical concentrations were in the range of 130 ng/mL The reaction was stopped by the addition of 5 μl of a solution of TR-FRET detection reagents (0.2 μM streptavidine-XL665 [Cisbio Bioassays, Codolet, France] and 1 nM anti-RB(pSer807/pSer811)-antibody from BD Pharmingen [#558389] and 1.2 nM LANCE EU-W1024 labeled anti-mouse IgG antibody [Perkin-Elmer, product no. AD0077]) in an aqueous EDTA-solution (100 mM EDTA, 0.2% (w/v) bovine serum albumin in 100 mM HEPES/NaOH pH 7.0).
The resulting mixture was incubated 1 h at 22° C. to allow the formation of complex between the phosphorylated biotinylated peptide and the detection reagents. Subsequently the amount of phosphorylated substrate was evaluated by measurement of the resonance energy transfer from the Eu-chelate to the streptavidine-XL. Therefore, the fluorescence emissions at 620 nm and 665 nm after excitation at 350 nm was measured in a TR-FRET reader, e.g. a Rubystar (BMG Labtechnologies, Offenburg, Germany) or a Viewlux (Perkin-Elmer). The ratio of the emissions at 665 nm and at 622 nm was taken as the measure for the amount of phosphorylated substrate.

Experiment [2] relates to HeLa-MaTu-ADR, multidrug-resistant human cervical carcinoma cells. In words: Proliferation assay, HeLa-MaTu-ADR (crystal violet). The format is cell-based. The settings on record: 4 days, read-out: Inhibition of HeLa-MaTu-ADR cell proliferation IC50. On the procedure: (§1) Cultivated tumour cells (HeLa, human cervical tumour cells, ATCC CCL-2; NCI-H460, human non-small cell lung carcinoma cells, ATCC HTB-177; A2780, human ovarian carcinoma cells, ECACC #93112519; DU 145, hormone-independent human prostate carcinoma cells, ATCC HTB-81; HeLa-MaTu-ADR, multidrug-resistant human cervical carcinoma cells, EPO-GmbH Berlin; Caco-2, human colorectal carcinoma cells, ATCC HTB-37; B16F10, mouse melanoma cells, ATCC CRL-6475) were plated at a density of 5,000 cells/well (DU145, HeLa-MaTu-ADR), 3,000 cells/well (NCI-H460, HeLa), 2,500 cells/well (A2780), 1,500 cells/well (Caco-2), or 1,000 cells/well (B16F10) in a 96-well multititer plate in 200 μL of their respective growth medium supplemented 10% fetal calf serum. After 24 hours, the cells of one plate (zero-point plate) were stained with crystal violet (see below), while the medium of the other plates was replaced by fresh culture medium (200 μl), to which the test substances were added in various concentrations (0 μM, as well as in the range of 0.001-10 μM; the final concentration of the solvent dimethyl sulfoxide was 0.5%). The cells were incubated for 4 days in the presence of test substances. Cell proliferation was determined by staining the cells with crystal violet: the cells were fixed by adding 20 μl/measuring point of an 11% glutaric aldehyde solution for 15 minutes at room temperature. After three washing cycles of the fixed cells with water, the plates were dried at room temperature. The cells were stained by adding 100 μl/measuring point of a 0.1% crystal violet solution (pH 3.0). After three washing cycles of the stained cells with water, the plates were dried at room temperature. The dye was dissolved by adding 100 μl/measuring point of a 10% acetic acid solution. The extinction was determined by photometry at a wavelength of 595 nm. The change of cell number, in percent, was calculated by normalization of the measured values to the extinction values of the zero-point plate (=0%) and the extinction of the untreated (0 μm) cells (=100%). The IC50 values (inhibitory concentration at 50% of maximal effect) were determined by means of a 4 parameter fit. Non-adherent MOLM-13 human acute myeloid leukemia cells (DSMZ ACC 554) were seeded at a density of 5,000 cells/well in a 96-well multititer plate in 100 μL of growth medium supplemented 10% fetal calf serum. After 24 hours, cell viability of one plate (zero-point plate) was determined with the Cell Titre-Glo Luminescent Cell Viability Assay (Promega), while 50 μL of test compound containing medium was added to the wells of the other plates (final concentrations in the range of 0.001-10 μM and DMSO controls; the final concentration of the solvent dimethyl sulfoxide was 0.5%). Cell viability was assessed after 72-hour exposure with the Cell Titre-Glo Luminescent Cell Viability Assay (Promega).

Experiment [3] has as its system Caco-2, human colorectal carcinoma cells. In words: Proliferation assay, Caco-2 (crystal violet). The format is cell-based. The settings on record: Caco-2, 4 days, read-out: Inhibition of Caco-2 cell proliferation IC50. On the procedure: as §1
Experiment [4] has as its system B16F10, mouse melanoma cells. Put plainly: Proliferation assay, B16F10 (crystal violet). The format is cell-based. The settings on record: B16F10, 4 days, read-out: Inhibition of B16F10 cell proliferation IC50. Here is the method:
as §1

The subject of experiment [5] is A2780, human ovarian carcinoma cells. In words: Proliferation assay, A2780 (crystal violet). The settings on record: A2780, 4 days, read-out: Inhibition of A2780 cell proliferation IC50. The format is cell-based. On the procedure:
as §1

The subject of experiment [6] is MOLM-13 human acute myeloid leukemia cells. In words: Proliferation assay, MOLM-13 (Cell Titre-Glo). As to conditions: Homo sapiens, MOLM-13, 72 h, MOLM-13, 72-hour exposure; read-out: Inhibition of MOLM-13 cell proliferation IC50. The format is cell-based. Here is the method:
as §1

Read-outs that look alike come from different tables or passages of the source.

For the molecule `CCOC(=O)N=S(C)(=O)Cc1ccnc(Nc2cc(-c3ccc(F)cc3OC)c(F)cn2)c1` (racemic) [Example 11, (rac)-Ethyl{[(2-{[5-fluoro-4-(4-fluoro-2-methoxyphenyl)pyridin-2-yl]amino}pyridin-4-yl)methyl](methyl)oxido-λ^6-sulfanylidene}carbamate], the IC50 amounted to 0.17 µM in experiment [1]; 0.1 µM in experiment [2] (Homo sapiens, 96 h); 0.11 µM in experiment [3] (Homo sapiens, Caco-2, 96 h); 0.18 µM in experiment [4] (Mus musculus, B16-F10, 96 h); 0.023 µM in experiment [5] (Homo sapiens, A2780, 96 h); 0.042 µM in experiment [6].
As to `CCNC(=O)N=S(C)(=O)Cc1ccnc(Nc2cc(-c3ccc(F)cc3OC)c(F)cn2)c1` (racemic) [Example 12, (rac)-1-Ethyl-3-{[(2-{[5-fluoro-4-(4-fluoro-2-methoxyphenyl)pyridin-2-yl]amino}pyridin-4-yl)methyl](methyl)oxido-λ^6-sulfanylidene}urea], the IC50 in experiment [1] came to 0.14 µM; in experiment [2] (Homo sapiens, 96 h) it was 0.1 µM; in experiment [3] (Homo sapiens, Caco-2, 96 h) it was 0.098 µM; in experiment [4] (Mus musculus, B16-F10, 96 h) it was 0.13 µM; in experiment [5] (Homo sapiens, A2780, 96 h), 0.026 µM; in experiment [6], 0.029 µM.
As to `COc1cc(F)ccc1-c1cc(Nc2cc(CS(C)(=O)=NC(C)=O)ccn2)ncc1F` (racemic) [Example 13, (rac)-N-{[(2-{[5-Fluoro-4-(4-fluoro-2-methoxyphenyl)pyridin-2-yl]amino}pyridin-4-yl)methyl](methyl)oxido-λ^6-sulfanylidene}acetamide], the IC50 is 0.13 µM in experiment [1]; 0.11 µM in experiment [2] (Homo sapiens, 96 h); 0.12 µM in experiment [3] (Homo sapiens, Caco-2, 96 h); 0.18 µM in experiment [4] (Mus musculus, B16-F10, 96 h); 0.023 µM in experiment [5] (Homo sapiens, A2780, 96 h); 0.029 µM in experiment [6].
In the case of `COc1cc(F)ccc1-c1cc(Nc2cc(CS(C)(=N)=O)cc(F)n2)ncc1F` (racemic) [Example 17, (rac)-5-Fluoro-4-(4-fluoro-2-methoxyphenyl)-N-{6-fluoro-4-[(S-methylsulfonimidoyl)methyl]pyridin-2-yl}pyridin-2-amine], the IC50 in experiment [1] was determined as 0.049 µM; in experiment [2] (Homo sapiens, 96 h), 0.033 µM; in experiment [3] (Homo sapiens, Caco-2, 96 h) it was 0.057 µM; in experiment [4] (Mus musculus, B16-F10, 96 h) it was 0.067 µM; in experiment [5] (Homo sapiens, A2780, 96 h) it was 0.014 µM; in experiment [6] it was 0.02 µM.
Take `COc1cc(F)ccc1-c1cc(Nc2cc(CS(C)(=N)=O)cc(C(F)(F)F)n2)ncc1F` (racemic) [Example 21, (rac)-5-Fluoro-4-(4-fluoro-2-methoxyphenyl)-N-{4-[(S-methylsulfonimidoyl)methyl]-6-(trifluoromethyl)pyridin-2-yl}pyridin-2-amine]: the IC50 in experiment [1] amounted to 0.011 µM; in experiment [2] (Homo sapiens, 96 h), 0.03 µM; in experiment [3] (Homo sapiens, Caco-2, 96 h), 0.032 µM; in experiment [4] (Mus musculus, B16-F10, 96 h), 0.038 µM; in experiment [5] (Homo sapiens, A2780, 96 h), 0.017 µM; in experiment [6], 0.017 µM.
For `CCOc1cc(F)ccc1-c1cc(Nc2cc(CS(C)(=N)=O)cc(F)n2)ncc1F` (racemic) [Example 26, (rac)-4-(2-Ethoxy-4-fluorophenyl)-5-fluoro-N-{6-fluoro-4-[(S-methylsulfonimidoyl)methyl]pyridin-2-yl}pyridin-2-amine], the IC50 in experiment [1] came to 0.11 µM; in experiment [2] (Homo sapiens, 96 h) it was 0.049 µM; in experiment [3] (Homo sapiens, Caco-2, 96 h), 0.086 µM; in experiment [4] (Mus musculus, B16-F10, 96 h), 0.15 µM; in experiment [5] (Homo sapiens, A2780, 96 h), 0.036 µM; in experiment [6] it was 0.044 µM.
Consider `COc1cc(F)ccc1-c1cc(Nc2cc(CS(C)(=O)=NC#N)ccn2)ncc1F` (single isomer, unassigned) [Example 10, {[(2-{[5-Fluoro-4-(4-fluoro-2-methoxyphenyl)pyridin-2-yl]amino}pyridin-4-yl)methyl](methyl)oxido-λ^6-sulfanylidene}cyanamide], for which the IC50 in experiment [1] is 0.072 µM; in experiment [2] (Homo sapiens, 96 h) it was 0.032 µM; in experiment [3] (Homo sapiens, Caco-2, 96 h), 0.038 µM; in experiment [4] (Mus musculus, B16-F10, 96 h), 0.063 µM; in experiment [5] (Homo sapiens, A2780, 96 h) it was 0.01 µM; in experiment [6], 0.012 µM.
Regarding `COc1cc(F)ccc1-c1cc(Nc2cc(CS(C)(=N)=O)ccn2)ncc1F` (single isomer, unassigned; (+)) [Example 2, (+)-5-Fluoro-4-(4-fluoro-2-methoxyphenyl)-N-{4-[(S-methylsulfonimidoyl)methyl]pyridin-2-yl}pyridin-2-amine], the IC50 was 0.36 µM in experiment [1]; 0.033 µM in experiment [2]; 0.062 µM in experiment [3]; 0.24 µM in experiment [4]; 0.11 µM in experiment [5]; 0.029 µM in experiment [6].
For the molecule `COc1cc(F)ccc1-c1cc(Nc2cc(CS(C)(=N)=O)cc(C(F)(F)F)n2)ncc1F` (single isomer, unassigned; (+)) [Example 22, (+)-5-Fluoro-4-(4-fluoro-2-methoxyphenyl)-N-{4-[(S-methylsulfonimidoyl)methyl]-6-(trifluoromethyl)pyridin-2-yl}pyridin-2-amine], the IC50 was found to be 0.018 µM in experiment [1]; 0.03 µM in experiment [2] (Homo sapiens, 96 h); 0.038 µM in experiment [3] (Homo sapiens, Caco-2, 96 h); 0.051 µM in experiment [4] (Mus musculus, B16-F10, 96 h); 0.012 µM in experiment [5] (Homo sapiens, A2780, 96 h); 0.01 µM in experiment [6].
